Drawing on PubChem BioAssay (NCI), this text covers TGI and GI50 for 31 compounds.

Each structure is given as a SMILES string.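 Growth conditions: 96-well plates. Treatment: test compound, 48 hours, 5 concentrations. Analysis: linear interpolation between bracketing concentrations; unreached endpoints set to highest concentration. GI50 is the concentration that inhibits growth by half. TGI marks complete inhibition of growth.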

Assay in all cases: inhibition of tumour cell growth, NCI panel, 48 h
Assay [1] has as its system HL-60(TB) leukemia.
In assay [2] the test system is OVCAR-3 ovarian.
Assay [3] deals with RXF 393 renal.
Assay [4] has as its system SK-MEL-2 melanoma.
The test system of assay [5] is HCC-2998 colon.
The test system of assay [6] is SK-MEL-28 melanoma.
Assay [7] has as its system UACC-62 melanoma.
Assay [8] has as its system TK-10 renal.
The subject of assay [9] is LOX IMVI melanoma.
Assay [10] relates to MCF7 breast.

Take `CCC(=O)OC1CCn2c1nc1c2C(=O)C(C)=C(NC(C)=O)C1=O` (stereo unspecified): the TGI in assay [1] stood at 3.89 µM; in assay [2], 0.572 µM; in assay [3], 3.11 µM; in assay [4] it was 3.41 µM; in assay [5], 5.13 µM; in assay [6], 3.76 µM. Besides, the TGI in assay [7] turned out to be 3.43 µM; in [8], 17 µM; in [9], 2.7 µM.

For the compound `CC1CC(=O)Nc2ccc(Cl)cc2N1C(=O)CN1CCC(CCCCN(C)C)CC1` (stereo unspecified), the TGI in assay [1], in [2], in assay [5], in assay [6], in assay [7] and in assay [8] was greater than 100 µM throughout. Moreover, the TGI in assay [9] was greater than 100 µM.

Take `CC(=O)Nc1ccc(-c2nnc(SCC(=O)Nc3cccc(C)c3)o2)cc1`: the TGI in [1] is greater than 100 µM; in assay [2], 24.2 µM; in [3], 25.9 µM; in [4] it was 28.6 µM; in [6], 28.6 µM; in assay [7] it was 20.9 µM. Also, the TGI turned out to be 29.2 µM in [8] and 15.6 µM in [9].

In the case of `CCCCn1c(-c2ccccc2)cs/c1=N\N=C1C=C(C(C)(C)C)C(=O)C(C(C)(C)C)=C1`, the TGI in assay [1], in assay [2], in assay [3], in [4], in assay [5] and in assay [7] was greater than 100 µM in each case. For the same compound, the TGI in [8] and in [9] was greater than 100 µM in each case.

On to `Cc1ccc(Nc2c3c(c(C#N)c4nc5ccccc5n24)CCCC3)cc1`, for which the TGI is 25.5 µM in assay [1]; 34.6 µM in assay [2]; 31.7 µM in assay [4]; 94.9 µM in [5]; greater than 100 µM in [10]; 55.6 µM in assay [6]. Further, the TGI is 71.2 µM in assay [7], greater than 100 µM in assay [8] and greater than 100 µM in [9].

Consider `CN(C)CCCNC(=O)N/N=C/c1ccc(O)cc1`, for which the TGI in assay [1], in assay [2], in assay [4], in [5], in assay [10] and in assay [6] was greater than 100 µM throughout. Also, the TGI in assay [7] and in assay [8] was greater than 100 µM in each case.

On to `O=C(O)c1cc2ccccc2c(Cc2c(O)c(C(=O)O)cc3ccccc23)c1O`, for which the TGI in [1], in [2], in assay [3], in [4], in assay [5] and in assay [6] was greater than 100 µM each time. For the same compound, the TGI in assay [7], in assay [8] and in [9] was greater than 100 µM each time.

`CC(=O)Nc1ccc(NC(=O)CC(=O)Nc2ccc(NC(C)=O)cc2)cc1`: the TGI in assay [1] is greater than 100 µM; in assay [2], greater than 100 µM; in assay [5], 36.7 µM; in assay [10] it was greater than 100 µM; in [6] it was greater than 100 µM; in [7], 23.4 µM. Moreover, the TGI in assay [8] and in assay [9] was greater than 100 µM each time.

Consider `O=C(NN1C(=O)C(Cl)C1c1cccc(O)c1)c1ccccc1O` (stereo unspecified), for which the TGI in assay [1], in [2], in [3], in assay [4], in assay [5] and in [6] was greater than 100 µM in each case. The TGI in assay [7], in assay [8] and in assay [9] was greater than 100 µM each time.

`O=c1oc2cc(O)ccc2c2[nH]c3cc(O)ccc3c12`: the TGI in assay [1] is greater than 100 µM; in [2], 56.5 µM; in assay [3], 47.5 µM; in assay [4], 50.2 µM; in assay [5] it was 57 µM; in assay [6], greater than 100 µM. Further, the figures for the TGI in assay [7], in assay [8] and in assay [9] were 31.7 µM, greater than 100 µM and 33.8 µM, respectively.

`Cc1ccc(S(=O)(=O)NC(=O)C2S(=O)(=O)OCCOS2(=O)=O)cc1`: the TGI in [1], in assay [2], in [4], in [5], in assay [6] and in [7] was greater than 100 µM each time. In addition, the TGI in [8] was greater than 100 µM.

In the case of `Cc1ccc(S(=O)(=O)N(CC(O)COc2ccccc2)c2c(F)c(F)cc(F)c2F)cc1` (stereo unspecified), the TGI stood at 19.7 µM in assay [1]; 54.1 µM in assay [2]; 31.3 µM in [4]; 53.5 µM in assay [5]; 32.7 µM in [10]; 36.8 µM in assay [6]. Besides, the values for the TGI in assay [7], in assay [8] and in assay [9] were 37.5 µM, 84.1 µM and 37.6 µM, respectively.

As to `CCN(CC)CC1CCCCN1CC(=O)N1c2cc(Cl)ccc2NC(=O)CC1C` (stereo unspecified), the TGI in assay [1], in [2], in assay [4], in assay [5], in [6] and in [7] was greater than 100 µM in each case. Moreover, the TGI in [8] and in assay [9] was greater than 100 µM throughout.

As to `COc1cc(C2CC(C)(N3CCOCC3)Oc3cc4c(cc32)OCO4)cc(OC)c1OC` (stereo unspecified), the TGI in assay [2] was greater than 100 µM; in [4] it was greater than 35.9 µM; in [5], 2.11 µM; in assay [10], greater than 100 µM; in [7], greater than 100 µM; in assay [9] it was greater than 100 µM.

Consider `Clc1ccc(Nc2ncco2)cc1Cl`, for which the TGI in assay [2], in [5], in [10], in assay [6], in [7] and in assay [8] was greater than 10 µM throughout. In assay [9], this compound yielded a TGI greater than 10 µM.

Take `CCOC(=O)/C=C/n1c2ccccc2c(=O)c2cc(OC)ccc21`: the TGI in [1], in assay [2], in [3], in assay [4], in assay [5] and in [6] was greater than 100 µM each time. Moreover, the TGI was greater than 100 µM in assay [7], greater than 100 µM in assay [8] and 41.3 µM in assay [9].

On to `O=C(Nc1ccccc1[N+](=O)[O-])/C(=N/Nc1cccc(Cl)c1)c1c(O)c2ccccc2oc1=O`, for which the TGI in [2], in assay [3], in assay [4], in assay [5], in [6] and in assay [7] was greater than 100 µM each time. The TGI in [8] and in assay [9] was greater than 100 µM each time.

Take `Cc1ccc2nc(N)[nH]c(=O)c2c1Sc1ccncc1`: the TGI in assay [1], in assay [2], in [3], in [4], in [5] and in assay [6] was greater than 100 µM in each case. Moreover, the TGI in assay [7] is greater than 31.6 µM; in assay [8] it was greater than 100 µM; in assay [9], greater than 100 µM.

Consider `Oc1cc(O)c2c(c1)O[C@H](c1ccc(O)c(O)c1)[C@@H](O)C2`, for which the TGI in assay [1], in [2], in assay [4], in [5], in [10] and in assay [6] was greater than 100 µM throughout. Besides, the TGI in assay [8] and in assay [9] was greater than 100 µM in each case.

In the case of `C=CCn1c(-c2cc(C(C)(C)C)c(O)c(C(C)(C)C)c2)cs/c1=N\C(P(=O)(O)O)P(=O)(O)O`, the TGI in assay [1], in assay [2], in assay [4], in assay [5], in [10] and in assay [6] was greater than 100 µM throughout. For the same compound, the TGI in assay [8] is greater than 100 µM.

For `COc1ccc(C=Nc2ccc(-c3nc4ccccc4s3)cc2)cc1OC`, the TGI in [2] was 51.9 µM; in assay [3], 62.4 µM; in [4], 48.1 µM; in assay [5], 40 µM; in [6], greater than 100 µM; in [7], 47.2 µM. Moreover, the TGI stood at 69 µM in assay [8] and 45.5 µM in [9].

Take `CC(C)OP(=O)(OC(C)C)C(=NCCO)NNc1ccc([N+](=O)[O-])cc1`: the TGI in assay [1], in assay [2], in assay [4], in assay [5], in assay [6] and in assay [7] was greater than 100 µM in each case. In addition, the TGI in assay [8] and in assay [9] was greater than 100 µM in each case.

Regarding `CN1C(=O)c2ccccc2C(O)(c2ccccc2)C1(O)c1ccccc1` (stereo unspecified), the TGI in assay [2], in assay [3], in assay [4], in assay [5], in [6] and in [7] was greater than 100 µM in each case. The TGI in assay [8] and in assay [9] was greater than 100 µM in each case.

As for `Oc1ccc(-c2c3ccccc3c(-c3ccc(O)cc3)c3ccccc23)cc1`, the TGI in assay [1], in assay [2], in assay [3], in [4], in assay [5] and in [6] was greater than 100 µM throughout. In addition, the TGI in assay [7], in assay [8] and in assay [9] was greater than 100 µM throughout.

On to `Cc1c(C)c2c(c(C)c1OC(=O)CCC(=O)[O-])CCC(C)(CCCCCCCCCCC[P+](c1ccccc1)(c1ccccc1)c1ccccc1)O2` (stereo unspecified), for which the GI50 in assay [1] was 0.14 µM; in assay [2], 0.145 µM; in [5], 0.214 µM; in assay [10], 0.161 µM; in [6], 0.241 µM; in assay [7], 0.177 µM. Further, the results for the GI50 in [8] and in [9] were 0.244 µM and 0.194 µM, respectively. Also, the TGI turned out to be 0.566 µM in [1]; 0.542 µM in [2]; 0.809 µM in [5]; 0.815 µM in [10]; 0.829 µM in assay [6]; 0.727 µM in assay [7]. In addition, the values for the TGI in assay [8] and in assay [9] were 1.18 µM and 0.747 µM, respectively.

Take `N#C/C(=C\c1ccc(O)c(O)c1)c1c(C#N)c(N)nn1-c1ccccc1`: the TGI in assay [1] was 32.7 µM; in [2], 6.63 µM; in assay [4], 49.8 µM; in assay [5] it was 26.4 µM; in assay [6], greater than 100 µM; in assay [7], greater than 100 µM. Besides, the TGI was greater than 100 µM in [8] and 44 µM in assay [9].

Turning to `Cc1ccc(S(=O)(=O)NC(=O)Nc2c(S(N)(=O)=O)cc(S(N)(=O)=O)c(Cl)c2Cl)cc1`, the TGI in assay [1], in [2], in assay [4], in assay [5], in assay [10] and in assay [6] was greater than 100 µM throughout. Also, the TGI in assay [7], in [8] and in assay [9] was greater than 100 µM each time.

`CCOC(=O)/C(Br)=C1\OC(=O)c2ccccc2-c2ccccc21`: the TGI in [1] is 40.1 µM; in assay [2] it was greater than 100 µM; in assay [4], greater than 100 µM; in assay [5], greater than 100 µM; in assay [6], greater than 100 µM; in assay [7] it was greater than 100 µM. In addition, the TGI in assay [8] and in assay [9] was greater than 100 µM throughout.

On to `O=[N+]([O-])c1ccc(CSc2nn(Cc3ccc([N+](=O)[O-])cc3)cc3ncnc2-3)cc1`, for which the TGI was 46.4 µM in [1]; greater than 100 µM in assay [2]; 49.1 µM in [4]; greater than 100 µM in assay [5]; greater than 100 µM in assay [10]; 84.5 µM in [6]. For the same compound, the TGI in assay [7] was 40.7 µM; in [8] it was greater than 100 µM; in assay [9], greater than 100 µM.

Take `CC(=O)N1C(C(=O)NN2CCOCC2)CSC1c1ccccc1` (stereo unspecified): the TGI in assay [2], in assay [4], in [5], in assay [10], in [7] and in assay [8] was greater than 100 µM each time. The compound also returned a TGI in assay [9] greater than 100 µM.

As to `COc1ccc(CN(CCN(C)C)c2ccccn2)cc1` (tested in a mixture with another compound), the TGI in assay [2], in [4], in [6] and in assay [8] was greater than 100 µM each time.
